Experimental findings from ChEMBL document CHEMBL4800731, “Data for DCP probe JNJ-65355394” (2021) are described below.

Activity calls are given as the source filed them. No cut-off for these calls is given here.

The target of experiment [1] is Kappa-type opioid receptor (Homo sapiens, UniProt P41145). Nature of the experiment: GPCRScan assay: inhibition of KOR. Set-up: radioligand conc. used [nm] 0.6 – 1.2, parental cells stable HEK.
For experiment [2], the target named is Neuromedin-K receptor (Homo sapiens) (UniProt P29371). Nature of the experiment: hNK3 Cerep panel.
Chain of Neuromedin-K receptor (Homo sapiens) (P29371 whole entry): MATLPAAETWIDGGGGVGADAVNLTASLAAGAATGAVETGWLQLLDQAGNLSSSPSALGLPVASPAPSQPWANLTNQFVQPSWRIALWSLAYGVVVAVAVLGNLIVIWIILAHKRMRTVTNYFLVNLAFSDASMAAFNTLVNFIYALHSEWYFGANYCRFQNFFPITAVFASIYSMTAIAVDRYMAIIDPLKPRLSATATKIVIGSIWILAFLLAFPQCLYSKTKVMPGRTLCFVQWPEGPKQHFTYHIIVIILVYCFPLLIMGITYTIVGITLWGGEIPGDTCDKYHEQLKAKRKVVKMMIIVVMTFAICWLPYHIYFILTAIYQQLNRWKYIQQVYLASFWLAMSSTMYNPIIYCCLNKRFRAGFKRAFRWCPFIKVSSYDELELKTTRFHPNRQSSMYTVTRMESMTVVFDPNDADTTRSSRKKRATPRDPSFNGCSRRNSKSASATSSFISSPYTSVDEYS
In another experiment the target is T1, Protein O-GlcNAcase (Homo sapiens, UniProt O60502).
T1 sequence (O60502 whole entry): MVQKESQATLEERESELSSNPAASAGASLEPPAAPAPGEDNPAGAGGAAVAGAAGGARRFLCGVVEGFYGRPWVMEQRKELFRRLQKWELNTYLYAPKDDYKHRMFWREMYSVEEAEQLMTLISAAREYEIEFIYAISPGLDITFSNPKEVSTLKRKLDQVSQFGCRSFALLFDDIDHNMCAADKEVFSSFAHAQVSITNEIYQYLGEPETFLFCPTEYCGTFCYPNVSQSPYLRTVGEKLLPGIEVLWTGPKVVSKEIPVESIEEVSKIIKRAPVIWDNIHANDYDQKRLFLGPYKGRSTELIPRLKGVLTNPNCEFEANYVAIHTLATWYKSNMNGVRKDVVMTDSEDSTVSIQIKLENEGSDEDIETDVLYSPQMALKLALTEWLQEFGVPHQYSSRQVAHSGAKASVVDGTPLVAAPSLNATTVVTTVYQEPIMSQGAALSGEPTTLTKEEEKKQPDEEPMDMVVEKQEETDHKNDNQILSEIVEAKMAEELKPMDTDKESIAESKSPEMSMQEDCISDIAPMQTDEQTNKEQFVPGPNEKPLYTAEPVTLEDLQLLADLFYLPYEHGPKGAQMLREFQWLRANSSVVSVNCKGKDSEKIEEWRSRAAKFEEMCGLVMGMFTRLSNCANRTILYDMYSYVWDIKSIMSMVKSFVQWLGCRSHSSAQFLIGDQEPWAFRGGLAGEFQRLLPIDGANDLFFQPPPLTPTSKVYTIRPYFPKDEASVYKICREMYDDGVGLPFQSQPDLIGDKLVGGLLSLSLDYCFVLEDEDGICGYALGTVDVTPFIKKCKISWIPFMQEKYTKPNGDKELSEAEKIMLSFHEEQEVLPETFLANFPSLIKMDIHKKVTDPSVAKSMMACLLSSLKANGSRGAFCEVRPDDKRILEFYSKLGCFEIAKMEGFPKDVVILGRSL
Nature of the experiment: Cell-based OGA assay.

The target in experiment [3] is T2, Muscarinic acetylcholine receptor M2 (Homo sapiens) (UniProt P08172).
T2 sequence (whole entry): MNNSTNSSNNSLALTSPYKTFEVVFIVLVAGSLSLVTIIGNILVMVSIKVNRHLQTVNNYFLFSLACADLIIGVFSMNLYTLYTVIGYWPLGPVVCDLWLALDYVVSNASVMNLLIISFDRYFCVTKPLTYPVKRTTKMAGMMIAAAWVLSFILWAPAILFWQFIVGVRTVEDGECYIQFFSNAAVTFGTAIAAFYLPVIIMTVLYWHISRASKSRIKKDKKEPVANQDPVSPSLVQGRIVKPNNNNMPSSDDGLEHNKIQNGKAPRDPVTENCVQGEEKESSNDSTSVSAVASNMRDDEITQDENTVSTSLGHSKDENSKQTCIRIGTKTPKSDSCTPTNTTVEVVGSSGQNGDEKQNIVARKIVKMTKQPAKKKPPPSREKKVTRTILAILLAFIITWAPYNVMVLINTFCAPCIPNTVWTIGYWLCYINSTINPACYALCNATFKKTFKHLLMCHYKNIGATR
Nature of the experiment: hM2 Cerep panel.

The target in experiment [4] is D(3) dopamine receptor (Homo sapiens) (UniProt P35462). The settings on record: Compound concentration 10.0 uM.
Chain of D(3) dopamine receptor (Homo sapiens) (P35462 whole entry): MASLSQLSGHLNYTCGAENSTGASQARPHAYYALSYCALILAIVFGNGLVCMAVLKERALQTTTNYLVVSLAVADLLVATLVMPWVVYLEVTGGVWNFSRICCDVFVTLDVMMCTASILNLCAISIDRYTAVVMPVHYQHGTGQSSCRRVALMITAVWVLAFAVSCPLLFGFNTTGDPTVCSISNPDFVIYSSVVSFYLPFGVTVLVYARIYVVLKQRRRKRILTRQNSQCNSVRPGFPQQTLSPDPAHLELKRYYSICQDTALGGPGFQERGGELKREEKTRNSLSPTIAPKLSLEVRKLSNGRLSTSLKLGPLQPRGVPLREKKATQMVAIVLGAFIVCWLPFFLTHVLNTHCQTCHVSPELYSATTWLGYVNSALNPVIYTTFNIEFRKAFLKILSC
For experiment [5], the species on record is Rattus norvegicus. Nature of the experiment: rBZD Cerep panel.
The target of experiment [6] is Endothelin-1 receptor (Homo sapiens) (UniProt P25101). Briefly: hETA Cerep panel.
Chain of Endothelin-1 receptor (Homo sapiens) (P25101 whole entry): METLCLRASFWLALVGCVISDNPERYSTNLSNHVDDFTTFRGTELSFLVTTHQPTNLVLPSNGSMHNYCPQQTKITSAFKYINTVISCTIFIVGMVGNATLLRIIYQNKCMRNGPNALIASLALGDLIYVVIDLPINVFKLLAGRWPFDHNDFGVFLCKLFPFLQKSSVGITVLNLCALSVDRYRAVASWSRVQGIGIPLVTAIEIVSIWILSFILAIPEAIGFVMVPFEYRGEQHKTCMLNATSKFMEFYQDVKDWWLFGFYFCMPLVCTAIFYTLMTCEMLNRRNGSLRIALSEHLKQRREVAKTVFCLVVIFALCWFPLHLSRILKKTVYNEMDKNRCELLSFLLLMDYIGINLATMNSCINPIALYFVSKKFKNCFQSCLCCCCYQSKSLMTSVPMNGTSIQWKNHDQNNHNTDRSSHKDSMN
The target in experiment [7] is Delta-type opioid receptor (Homo sapiens) (UniProt P41143). Briefly: hOP1 Cerep panel.
Chain of Delta-type opioid receptor (Homo sapiens) (P41143 whole entry): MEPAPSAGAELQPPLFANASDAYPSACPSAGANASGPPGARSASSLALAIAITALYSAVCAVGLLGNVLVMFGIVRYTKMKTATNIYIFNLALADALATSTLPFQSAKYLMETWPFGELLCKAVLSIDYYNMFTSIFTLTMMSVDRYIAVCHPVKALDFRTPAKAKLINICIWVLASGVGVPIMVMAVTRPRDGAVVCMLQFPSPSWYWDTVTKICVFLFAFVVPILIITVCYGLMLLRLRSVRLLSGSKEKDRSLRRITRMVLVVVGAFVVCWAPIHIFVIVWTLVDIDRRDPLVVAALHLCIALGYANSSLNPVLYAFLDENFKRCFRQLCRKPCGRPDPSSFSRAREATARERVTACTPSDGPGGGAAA
Experiment [8] has as its target T3, Alpha-1B adrenergic receptor (Homo sapiens) (UniProt P35368).
T3 sequence (whole entry): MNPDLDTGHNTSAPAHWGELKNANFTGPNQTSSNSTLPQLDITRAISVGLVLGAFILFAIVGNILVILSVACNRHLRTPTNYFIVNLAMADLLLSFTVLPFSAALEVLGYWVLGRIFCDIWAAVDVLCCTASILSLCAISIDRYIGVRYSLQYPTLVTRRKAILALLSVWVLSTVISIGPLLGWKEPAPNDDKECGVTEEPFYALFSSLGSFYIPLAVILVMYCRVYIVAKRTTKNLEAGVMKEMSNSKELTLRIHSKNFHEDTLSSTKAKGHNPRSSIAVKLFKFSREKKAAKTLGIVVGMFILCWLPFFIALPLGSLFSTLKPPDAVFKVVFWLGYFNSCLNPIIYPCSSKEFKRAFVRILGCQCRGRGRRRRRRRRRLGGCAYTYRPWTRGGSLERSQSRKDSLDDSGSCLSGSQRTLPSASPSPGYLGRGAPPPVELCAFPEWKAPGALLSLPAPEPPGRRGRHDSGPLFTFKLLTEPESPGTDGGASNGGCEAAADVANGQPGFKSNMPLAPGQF
Nature of the experiment: hAb1 Cerep panel.

The target in experiment [9] is T4, Muscarinic acetylcholine receptor M1 (Homo sapiens) (UniProt P11229).
T4 sequence (whole entry): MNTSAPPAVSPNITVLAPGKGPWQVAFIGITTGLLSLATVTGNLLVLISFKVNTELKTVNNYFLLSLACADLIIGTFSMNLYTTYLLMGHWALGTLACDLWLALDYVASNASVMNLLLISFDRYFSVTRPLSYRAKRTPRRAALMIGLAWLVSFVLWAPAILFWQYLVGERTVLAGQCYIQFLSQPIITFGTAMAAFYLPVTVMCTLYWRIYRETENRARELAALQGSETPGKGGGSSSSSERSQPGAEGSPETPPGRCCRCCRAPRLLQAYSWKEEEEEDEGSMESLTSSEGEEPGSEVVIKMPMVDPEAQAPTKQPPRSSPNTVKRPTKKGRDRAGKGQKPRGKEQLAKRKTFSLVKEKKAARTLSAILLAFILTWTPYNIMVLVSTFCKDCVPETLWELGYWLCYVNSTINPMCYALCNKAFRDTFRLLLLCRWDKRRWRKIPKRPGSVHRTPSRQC
Briefly: hM1 Cerep panel.

Experiment [10] addresses Muscarinic acetylcholine receptor M3 (Homo sapiens) (UniProt P20309). Briefly: hM3 Cerep panel.
Experiment [11] concerns the target Adenosine receptor A3 (Homo sapiens) (UniProt P0DMS8). Briefly: hA3 Cerep panel.
The species named for experiment [12] is Rattus norvegicus. Nature of the experiment: rKCH Cerep panel.
For experiment [13], the target named is Alpha-2B adrenergic receptor (Homo sapiens, UniProt P18089). Briefly: GPCRScan assay: inhibition of Alpha2B. Set-up: radioligand conc. used [nm] 1.5 – 2.0, parental cells HEKT.
Chain of Alpha-2B adrenergic receptor (P18089 whole entry): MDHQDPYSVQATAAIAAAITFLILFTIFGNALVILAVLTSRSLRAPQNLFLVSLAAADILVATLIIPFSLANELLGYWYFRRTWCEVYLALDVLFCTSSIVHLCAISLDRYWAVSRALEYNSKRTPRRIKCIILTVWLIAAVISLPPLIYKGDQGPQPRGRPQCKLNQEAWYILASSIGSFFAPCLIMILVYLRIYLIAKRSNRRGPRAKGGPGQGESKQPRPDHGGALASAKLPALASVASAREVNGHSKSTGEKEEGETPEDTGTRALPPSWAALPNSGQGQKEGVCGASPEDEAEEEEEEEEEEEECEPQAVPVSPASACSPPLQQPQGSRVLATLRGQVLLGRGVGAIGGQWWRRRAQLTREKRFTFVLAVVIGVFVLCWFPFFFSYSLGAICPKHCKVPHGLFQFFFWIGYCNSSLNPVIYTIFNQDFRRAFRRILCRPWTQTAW
The target in experiment [14] is Sodium-dependent serotonin transporter (Homo sapiens, UniProt P31645). Briefly: GPCRScan assay: inhibition of SERT. Set-up: radioligand conc. used [nm] 1.5 – 2.0, parental cells stable HEK.
Chain of Sodium-dependent serotonin transporter (P31645 whole entry): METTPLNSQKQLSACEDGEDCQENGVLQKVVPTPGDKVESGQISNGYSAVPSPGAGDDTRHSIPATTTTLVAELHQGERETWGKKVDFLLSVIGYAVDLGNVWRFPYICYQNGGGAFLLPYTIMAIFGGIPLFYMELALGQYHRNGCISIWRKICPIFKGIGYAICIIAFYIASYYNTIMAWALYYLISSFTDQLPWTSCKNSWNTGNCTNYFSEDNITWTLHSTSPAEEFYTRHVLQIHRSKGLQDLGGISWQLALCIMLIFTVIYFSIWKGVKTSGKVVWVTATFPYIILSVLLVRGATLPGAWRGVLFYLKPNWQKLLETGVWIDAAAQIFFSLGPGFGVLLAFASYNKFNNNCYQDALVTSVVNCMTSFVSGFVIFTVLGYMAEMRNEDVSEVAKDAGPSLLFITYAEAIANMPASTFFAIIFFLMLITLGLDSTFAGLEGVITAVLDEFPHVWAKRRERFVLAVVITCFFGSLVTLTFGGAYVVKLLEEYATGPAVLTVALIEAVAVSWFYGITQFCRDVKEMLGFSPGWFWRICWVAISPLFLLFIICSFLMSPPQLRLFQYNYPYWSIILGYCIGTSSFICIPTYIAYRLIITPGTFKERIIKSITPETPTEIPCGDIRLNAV

Chain of Kappa-type opioid receptor (P41145 whole entry): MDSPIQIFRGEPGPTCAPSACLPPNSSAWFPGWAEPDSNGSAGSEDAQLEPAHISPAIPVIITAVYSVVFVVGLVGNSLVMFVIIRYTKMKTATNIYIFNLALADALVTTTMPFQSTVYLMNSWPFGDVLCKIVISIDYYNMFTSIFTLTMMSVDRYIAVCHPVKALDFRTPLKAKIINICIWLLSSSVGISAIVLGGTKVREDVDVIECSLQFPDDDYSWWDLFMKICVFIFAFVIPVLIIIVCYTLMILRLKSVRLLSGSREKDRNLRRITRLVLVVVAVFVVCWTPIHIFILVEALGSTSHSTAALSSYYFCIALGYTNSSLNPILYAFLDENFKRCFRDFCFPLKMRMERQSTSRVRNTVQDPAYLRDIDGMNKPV
Chain of Muscarinic acetylcholine receptor M3 (Homo sapiens) (P20309 whole entry, looked up): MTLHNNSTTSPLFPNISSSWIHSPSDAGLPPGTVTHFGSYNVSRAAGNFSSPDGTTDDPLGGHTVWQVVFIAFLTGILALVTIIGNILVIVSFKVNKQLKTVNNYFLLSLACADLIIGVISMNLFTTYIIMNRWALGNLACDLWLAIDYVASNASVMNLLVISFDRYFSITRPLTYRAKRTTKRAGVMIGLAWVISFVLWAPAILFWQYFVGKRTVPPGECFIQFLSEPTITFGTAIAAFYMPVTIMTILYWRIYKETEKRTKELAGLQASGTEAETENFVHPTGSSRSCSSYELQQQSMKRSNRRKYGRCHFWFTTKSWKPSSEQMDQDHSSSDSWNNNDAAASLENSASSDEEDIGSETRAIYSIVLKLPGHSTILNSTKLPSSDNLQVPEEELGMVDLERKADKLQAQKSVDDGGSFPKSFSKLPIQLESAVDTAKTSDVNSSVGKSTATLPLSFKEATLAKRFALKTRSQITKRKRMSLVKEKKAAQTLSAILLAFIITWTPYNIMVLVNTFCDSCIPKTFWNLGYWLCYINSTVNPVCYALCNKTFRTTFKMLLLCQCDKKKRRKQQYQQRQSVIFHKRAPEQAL
Chain of Adenosine receptor A3 (Homo sapiens) (P0DMS8 whole entry): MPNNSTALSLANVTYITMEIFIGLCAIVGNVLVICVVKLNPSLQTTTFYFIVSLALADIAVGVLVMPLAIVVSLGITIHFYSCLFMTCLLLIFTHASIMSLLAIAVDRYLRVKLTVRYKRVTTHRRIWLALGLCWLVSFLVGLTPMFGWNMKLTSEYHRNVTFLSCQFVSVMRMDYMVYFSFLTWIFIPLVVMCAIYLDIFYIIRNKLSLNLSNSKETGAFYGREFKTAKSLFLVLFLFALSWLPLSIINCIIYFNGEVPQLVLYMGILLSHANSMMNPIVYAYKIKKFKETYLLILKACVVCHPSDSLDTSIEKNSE

Regarding `CC(=O)Nc1ncc(CN2CCC[C@H](Cc3cc(C)nc(C)c3)C2)s1` [JNJ-65355394], the Ki is 0.773 µM in experiment [1] (read-out: Ki) and 0.741 µM in experiment [1] (read-out: pKi (converted)). Besides, the effect in experiment [2] is 7%; in experiment [3] it was 25.4%; in the experiment filed under Rattus norvegicus [5] it was -16.6%; in experiment [6] it was 3.6%; in [7] it was 20.4%; in experiment [8], 11.2%. Further, the effect in experiment [9] was found to be 32.5%; in experiment [10] it was 45.5%; in [11], 16%; in the experiment filed under Rattus norvegicus [12], 1%. Besides, the IC50 (commonly the concentration that inhibits the measured activity by half) at Protein O-GlcNAcase was 0.0039 µM (active). In addition, the inhibition – broadly, the share of the control response that was lost under treatment – in experiment [4] was 10.3%.

For the molecule `CC(=O)Nc1nc(CN2CCC[C@H](Cc3cc(C)nc(C)c3)C2)cs1` [JNJ-73924149], the Ki in [13] (read-out: Ki) was 3.69 µM; in [13] (read-out: pKi (converted)), 3.67 µM; in experiment [14] (read-out: Ki), 2.61 µM; in [14] (read-out: pKi (converted)) it was 2.57 µM.
